Each block holds one molecule with its values, some of them ahead of it.
How the values were obtained:
[1] = test system: DNA damage in LNCaP cells; test: Alkaline comet assay in LNCaP cells; conditions: polyamide 10 μM 48 h; dox 5 μM 4 h
p53 = p53 protein ELISA in LNCaP cells; format: cell-based; conditions: polyamide 10 μM 72 hr; doxorubicin 1 μM 24 hr
Method: (§1) Cellular levels of RPB1 and p53 protein in LNCaP cells after treatment with 10 μM 3 for 72 h were determined by ELISA. Cells treated with DMSO vehicle and 1 μM doxorubicin for 24 h were used as control. Cellular RBP1 levels were determined by a RPB1 specific ELISA kit (Cusabio Life Sciences) according to manufacturer's instructions. Total cellular p53 protein level was determined with a pan-p53 ELISA kit (Roche) according to manufacturer's instructions. Assays were performed in biological triplicates.

RPB1 = RPB1 protein ELISA in LNCaP cells; format: cell-based; conditions: polyamide 10 μM 72 hr; doxorubicin 1 μM 24 hr
Method: as §1, with “Cellular levels of RPB1 and p53 protein in LNCaP cells after treatment with 10 μM 3 for 72 h were determined by ELISA.” left out

[2] = Escalating single dose subcutaneous injections, male C57BL/6J mice (weight, histopathology, serum)
[3] = cited from earlier work
[4] = Liver microsomal stability, mouse
[5] = Multiple-dose subcutaneous injections, male C57BL/6J mice; format: in vivo; conditions: 1 mg/kg SC every 3 days
Method: In addition to single dose injections, the effects of repeated dosing of polyamides 77-80 in mice were examined. In this experiment, 8 week-old male C57BL/6J mice (n=3 per dosing group) were treated with 1 mg/kg of polyamides 77-80 by subcutaneous injection every 3 days, for a cycle of three injections and then sacrificed two days after the final injection (FIG. 31A). As in the single dosing experiments, two mice per group were subjected to histopathology analysis and all blood samples were sent for analysis. […] These mice were promptly euthanized.
Serum from treated animals were collected by retroorbital bleeding. […] All samples were sent for analysis at IDEXX-RADIL.

[6] = Liver microsomal stability, human
[7] = previous assay, 0.3 mg/ml enzyme (34); cited from earlier work
[8] = test system: transcripts in DHT-stimulated LNCaP cells; test: Gene expression with Affymetrix Human Genome U133 Plus 2.0 arrays, DHT-stimulated LNCaP cells; format: cell-based
Method: LNCaP cells were plated in 12-well plates at a density of 80-100×10^3 cells per well. Media, polyamide treatments, and time courses were the same as described above. Bicalutamide was added 2 h before DHT stimulation. RNA was isolated as described in ref. 21. From this point, experiments were carried out at the Millard and Muriel Jacobs Gene Expression Facility at the California Institute of Technology. Labeled mRNA was hybridized to Affymetrix high-density Human Genome U133 Plus 2.0 arrays according to established protocols. Gene expression was analyzed by using Resolver (Rosetta Biosoftware, Seattle, Wash.). Data were uploaded to the Gene Expression Omnibus repository (accession no. GSE7708).
Global effects of polyamides 1 and 2 and bicalutamide on gene expression in DHT-stimulated LNCaP cells were monitored with Affymetrix (Santa Clara, Calif.) high-density Human Genome U133 Plus 2.0 arrays, which interrogate >50,000 transcripts.

[9] = test system: GILZ mRNA expression in A549 cells; test: Dexamethasone-induced GILZ mRNA in A549 cells, quantitative real-time RT-PCR; format: cell-based
[10] = test system: PSA mRNA expression in LNCaP cells; test: DHT-induced PSA mRNA in LNCaP cells, quantitative real-time RT-PCR; format: cell-based
[11] = test system: binding of LNCaP nuclear extract factors to the ARE site in the PSA promoter; test: Electrophoretic mobility shift assay with DHT-stimulated LNCaP nuclear extract; format: biochemical; conditions: same concentrations
Method: containing the PSA promoter ARE (underlined) was end-labeled with ^32P and annealed to its complement. Polyamides 1 and 2 were incubated with the duplex for 3 h in previously optimized buffer conditions (45). Nuclear extract from DHT-treated LNCaP cells (Genetex, San Antonio, Tex.) was then added for an additional 45 min. Complexes were run on a 5% polyacrylamide gel and visualized on a phosphorimager.
The effects of polyamides 1 and 2 on the binding of factors present in the nuclear extract isolated from DHT-stimulated LNCaP cells to the ARE site in the PSA promoter was measured by an electrophoretic mobility shift assay (FIG. 8D).

ARE of the PSA promoter = test: Quantitative DNase I footprint titration on pAR-PSA fragment; format: binding
From the text: Plasmid pAR-PSA was constructed by inserting a 70-bp sequence from the PSA promoter containing the ARE into pUC19 plasmid. […] Detailed experimental protocols are reported elsewhere (44). The proximal PSA promoter contains the ARE [NT] ID NO:15) (FIG. 8A). […] However, 1 is observed to bind the sequence [NT]≈12 bp 5' to the ARE, which is an expected binding site for this molecule.

[12] = test system: AR occupancy at the PSA promoter and enhancer; test: Chromatin immunoprecipitation with anti-AR, PSA promoter and enhancer; format: cell-based
Method: LNCaP cells were plated in 15-cm diameter plates at a density of 2×10^6 cells per plate. Media, polyamide treatment, time course, and DHT stimulation were the same as described above. After the 16-h DHT treatment, cells were treated with 1% formaldehyde for 10 min. Chromatin was isolated and sheared. Antibodies to AR (AR-20, Santa Cruz Biotechnology, Santa Cruz, Calif.) were used to immunoprecipitate AR-bound DNA fragments. Crosslinks were reversed, and PCRs using primers targeted to the regions of interest were used to assess enrichment of bound fragments as compared with mock-precipitated (no antibody) controls. PCRs were monitored with SYBR Green PCR Master Mix (Applied Biosystems) on an ABI 7300 instrument. Primer sequences and a more detailed experimental protocol are available upon request.

[13] = test system: AR occupancy at the FKBP5 intronic enhancer; test: Chromatin immunoprecipitation with anti-AR, FKBP5 fifth intron enhancer; format: cell-based; conditions: 10 μM
[14] = test system: FKBP5 mRNA expression in LNCaP cells; test: DHT-induced FKBP5 mRNA in LNCaP cells; format: cell-based
[15] = 1 μM, Mouse, 1 hr at 37° C., 1 mg/ml microsomes
[16] = 1 μM, Human, 1 hr at 37° C., 1 mg/ml microsomes
[17] = 10 μM, + DHT, relative to DHT-induced controls, p ≦ 0.01
[18] = relative to DHT-induced controls, + DHT

Compound: COc1cccc2c1C(=O)c1c(O)c3c(c(O)c1C2=O)C[C@@](O)(C(=O)CO)C[C@@H]3O[C@H]1C[C@H](N)[C@H](O)[C@H](C)O1 [doxorubicin, reference compound]
DNA damage by comet assay [1]: significantly increases comet-tail percent of DNA
cellular level of p53 protein (p53): increases
RPB1 protein (RPB1): decreases

Compound: CC(=O)N[C@@H](CNC(=O)c1cc(NC(=O)c2cc(NC(=O)c3cc(NC(=O)c4nccn4C)cn3C)cn2C)cn1C)CC(=O)Nc1cn(C)c(C(=O)Nc2cc(C(=O)Nc3cc(C(=O)Nc4cc(C(=O)NCCCN(C)CCCNC(=O)c5cccc(C(=O)O)c5)n(C)c4)n(C)c3)n(C)c2)n1 [Polyamide 80, ImPyPyPy-3-(R)^AcHNγ-ImPyPyPy-NHMe-IPA]
tolerability, behavior and morbidity after single SC dose ([2]; 1, 3, 10 mg/kg): only tolerated at 1 mg/kg
kidney histopathology ([2]; single SC 1 mg/kg): Milder tubular regeneration and karyomegaly
liver histopathology ([2]; single SC 1 mg/kg): Mild hepatocellular necrosis and apoptosis
kidney histopathology ([2]; single SC 3 mg/kg): Moderate atypical tubular regeneration
liver histopathology ([2]; single SC 3 mg/kg): multifocal bridging hepatocellular necrosis and apoptosis
spleen histopathology ([2]; single SC 3 mg/kg): Mild lymphoid apoptosis in the white pulp of the spleen
kidney histopathology ([2]; single SC 10 mg/kg): Moderate atypical tubular regeneration
liver histopathology ([2]; single SC 10 mg/kg): multifocal bridging hepatocellular necrosis and apoptosis
spleen histopathology ([2]; single SC 10 mg/kg): Mild lymphoid apoptosis in the white pulp of the spleen
serum kidney markers creatinine and BUN ([2]; single SC dose): significantly elevated creatinine and BUN at 10 mg/kg, and elevated BUN at 3 mg/kg
serum liver markers AST, ALT, total bilirubin ([2]; single SC dose): marked and severe elevations of AST, ALT, and total bilirubin at both 3 mg/kg and 10 mg/kg
animal toxicity after single subcutaneous administration ([3]; female C57BL/6J mice, 77 at 2.5 and 5 mg/kg, 80 at 2.3 and […]): acute animal toxicity in addition to weight loss
renal clearance ([3]; mouse, in vivo): significant renal clearance was exclusive to 80
Mean remaining parent NADPH-free [4, 15]: 4.9%
Mean remaining parent with NADPH [4, 15]: 4.0%
intact after 1 hour incubation ([4]; mouse liver microsomes, with or without NADPH): less than 5%
liver and kidney histopathology [5]: marked hepatocellular necrosis and apoptosis in the liver and hyaline droplet accumulation in the kidneys
weight and physical morbidity ([5]; three injections): dramatic weight loss, loss of mobility, and hunched posture within six days
Mean remaining parent NADPH-free [6, 16]: 3.8%
Mean remaining parent with NADPH [6, 16]: 3.0%
intact after 1 hour incubation ([6]; human liver microsomes, with or without NADPH): less than 5%
stability against rat and human microsomes [7]: stable

effect on binding to the labeled duplex [11]: minimal effect
binding in the footprinted region (ARE of the PSA promoter): no measurable binding
Ka (ARE of the PSA promoter; ARE consensus half-site 5′-AGAACA-3′): < 1e+07 M⁻¹
occupancy of AR at the PSA promoter and enhancer ([12]; 1 μM as printed): minimal effect
AR occupancy at the PSA promoter and enhancer ([12]; 10 μM, FIG. 9 legend): not
occupancy of AR at the FKBP5 intronic enhancer [13]: no measurable effect
Compound: CN(CCCNC(=O)c1cccc(C(=O)O)c1)CCCNC(=O)c1cc(NC(=O)c2cc(NC(=O)c3nc(NC(=O)c4cc(NC(=O)[C@H](N)CCNC(=O)c5nc(NC(=O)c6cc(NC(=O)c7cc(NC(=O)c8nccn8C)cn7C)cn6C)cn5C)cn4C)cn3C)cn2C)cn1C [Polyamide 2]
Number of transcripts down-regulated (fold change ≦ −2.0) [8, 17]: 284
Number of transcripts down-regulated (fold change ≦ −4.0) [8, 17]: 32
Number of transcripts up-regulated (fold change ≧ 2.0) [8, 17]: 95
Number of transcripts up-regulated (fold change ≧ 4.0) [8, 17]: 11
number of transcripts affected by at least 2-fold ([8]; 10 μM, P≦0.01, vs DHT-induced controls): 379
share of interrogated transcripts affected ([8]; 10 μM, at least 2-fold): < 1%
number of the 88 DHT-repressed transcripts derepressed at least 2-fold ([8]; P≦0.01): 3
number of the 199 DHT-induced transcripts inhibited at least 2-fold ([8]; P≦0.01): 20
Fold-change of FKBP5 [8, 18]: 1.5
Fold-change of KLK2 [8, 18]: −1.1
Fold-change of KLK3 (PSA) [8, 18]: −1.4
Fold-change of TMPRSS2 [8, 18]: −1.4
effect on GILZ mRNA induction [9]: more modest effect
effect on DHT-induced PSA mRNA [10]: more modest effect
effects on cell growth ([10]; LNCaP, over the course of the experiment): no obvious detrimental effects on cell growth
effect on FKBP5 expression [14]: minimal effect
